According to patent publication US9238039B2, “Pyrazolo[1,5-A]pyrimidines for antiviral treatment” (Gilead Sciences, Inc., priority 2010, dated 2016):

Tested on: RSV strain A2
Assay: RSV antiviral cytoprotection assay in Hep2 cells (96-well and 384-well format, Cell TiterGlo read-out)
Format: cell-based, Respiratory Syncytial Virus (RSV)
Conditions: human respiratory syncytial virus; for inhibition at 0.5 µM: HEp-2, 0.5 uM, RSV-induced cytopathic effect in Hep2 cells, calculated from fitted dose response curve, normalized to 0% and 100%; for EC50: HEp-2, RSV-induced cytopathic effects, Hep2 cells, class symbols

EC50	SMILES	inhibition at 0.5 µM
0.1 to 100 nM	COc1cc(Cl)cc(C(=O)N2CCCC[C@H]2c2cc3nc(N4CC[C@H](N)C4)c(C)cn3n2)c1 [Compound 376]	100%
0.1 to 100 nM	COc1cccc(C(=O)N2CCCC[C@H]2c2cc3nc(N4CC[C@H](N)C4)c(C)cn3n2)c1Cl [Compound 377]	99%
0.1 to 100 nM	Cc1cn2nc([C@@H]3CCCCN3C(=O)c3ccccc3OC(F)F)cc2nc1N1CC[C@H](N)C1 [Compound 379]	100%
0.1 to 100 nM	CCCn1cc(Cl)c(C(=O)N2CCCC[C@H]2c2cc3nc(N4CC[C@H](N)C4)c(C)cn3n2)n1 [Compound 381]	100%
0.1 to 100 nM	Cc1cn2nc([C@@H]3CCCCN3C(=O)c3ccc4[nH]c(C)c(C)c4c3)cc2nc1N1CC[C@H](N)C1 [Compound 386]	97%
0.1 to 100 nM	Cc1cn2nc([C@@H]3CCCCN3C(=O)c3cccc(-n4cnnc4)n3)cc2nc1N1CC[C@H](N)C1 [Compound 389]	98%
101 to 1000 nM	Cc1cn2nc([C@@H]3CCCCN3C(=O)c3ccc(Cl)cc3Cl)cc2nc1N1CC[C@H](N)C1 [Compound 390]	86%
0.1 to 100 nM	Cc1cn2nc([C@@H]3CCCCN3C(=O)c3cc(Cl)ncc3Cl)cc2nc1N1CC[C@H](N)C1 [Compound 395]	100%
0.1 to 100 nM	Cc1cn2nc([C@@H]3CCCCN3C(=O)c3ccc(Cn4cccn4)o3)cc2nc1N1CC[C@H](N)C1 [Compound 396]	99%
1000 to 10000 nM	Cc1cc(C)n2nc(C(=O)N3CCCCC3c3cc4nc(N5CC[C@H](N)C5)c(C)cn4n3)nc2n1 (some centres unmarked) [Compound 397]	3%
0.1 to 100 nM	Cc1cc(C(=O)N2CCCC[C@H]2c2cc3nc(N4CC[C@H](N)C4)c(C)cn3n2)c(C(F)(F)F)o1 [Compound 399]	100%
0.1 to 100 nM	Cc1ccn2c(F)c(C(=O)N3CCCC[C@H]3c3cc4nc(N5CC[C@H](N)C5)c(C)cn4n3)nc2c1 [Compound 403]	100%
0.1 to 100 nM	Cc1cn2nc([C@@H]3CCCCN3C(=O)c3cc(C4(O)CCCC4)on3)cc2nc1N1CC[C@H](N)C1 [Compound 405]	99%
0.1 to 100 nM	Cc1cn2nc([C@@H]3CCCCN3C(=O)c3ccc(-c4ccccc4)cc3)cc2nc1N1CC[C@H](N)C1 [Compound 406]	98%
1000 to 10000 nM	Cc1cn2nc([C@@H]3CCCCN3C(=O)c3cc(-c4ccccc4)ccn3)cc2nc1N1CC[C@H](N)C1 [Compound 410]	
101 to 1000 nM	Cc1cn2nc([C@@H]3CCCCN3C(=O)c3cccc(-c4cccnc4)c3)cc2nc1N1CC[C@H](N)C1 [Compound 411]	95%

Second part, the compound before the results:

SMILES	EC50	inhibition at 0.5 µM
Cc1cn2nc([C@@H]3CCCCN3C(=O)c3ccc(OC(F)F)cc3)cc2nc1N1CC[C@H](N)C1 [Compound 378]	101 to 1000 nM	48%
Cc1cn2nc([C@@H]3CCCCN3C(=O)c3ccc(F)c(C)c3Cl)cc2nc1N1CC[C@H](N)C1 [Compound 380]	101 to 1000 nM	80%
Cc1cn2nc([C@@H]3CCCCN3C(=O)c3c(Cl)cnn3C(C)C)cc2nc1N1CC[C@H](N)C1 [Compound 382]	0.1 to 100 nM	99%
Cc1cn2nc([C@@H]3CCCCN3C(=O)c3cc(-c4ccccc4)on3)cc2nc1N1CC[C@H](N)C1 [Compound 383]	0.1 to 100 nM	99%
Cc1cn2nc([C@@H]3CCCCN3C(=O)c3cc(-c4cccnc4)n[nH]3)cc2nc1N1CC[C@H](N)C1 [Compound 384]	101 to 1000 nM	48%
Cc1cn2nc([C@@H]3CCCCN3C(=O)c3ccccc3C(F)(F)F)cc2nc1N1CC[C@H](N)C1 [Compound 387]	101 to 1000 nM	77%
Cc1cn2nc([C@@H]3CCCCN3C(=O)c3ccnc(-n4cnnc4)c3)cc2nc1N1CC[C@H](N)C1 [Compound 388]	0.1 to 100 nM	100%
Cc1cn2nc([C@@H]3CCCCN3C(=O)c3cc(Cl)ccc3Cl)cc2nc1N1CC[C@H](N)C1 [Compound 391]	0.1 to 100 nM	99%
Cc1cn2nc([C@@H]3CCCCN3C(=O)c3ccc(Cl)c(Cl)c3)cc2nc1N1CC[C@H](N)C1 [Compound 392]	0.1 to 100 nM	95%
Cc1cc(C(=O)N2CCCC[C@H]2c2cc3nc(N4CC[C@H](N)C4)c(C)cn3n2)c2cnn(C)c2n1 [Compound 393]	0.1 to 100 nM	99%
Cc1cc(C)n2ncc(C(=O)N3CCCC[C@H]3c3cc4nc(N5CC[C@H](N)C5)c(C)cn4n3)c2n1 [Compound 394]	0.1 to 100 nM	100%
Cc1cn2nc([C@@H]3CCCCN3C(=O)c3[nH]c4ccc(F)cc4c3C)cc2nc1N1CC[C@H](N)C1 [Compound 398]	0.1 to 100 nM	99%
Cc1cn2nc([C@@H]3CCCCN3C(=O)c3cc(C(F)(F)F)n(C)n3)cc2nc1N1CC[C@H](N)C1 [Compound 400]	0.1 to 100 nM	100%
Cc1cn2nc([C@@H]3CCCCN3C(=O)c3ccnn3CC(F)(F)F)cc2nc1N1CC[C@H](N)C1 [Compound 401]	0.1 to 100 nM	100%
Cc1cn2nc([C@@H]3CCCCN3C(=O)c3cn(C)nc3C(F)(F)F)cc2nc1N1CC[C@H](N)C1 [Compound 402]	0.1 to 100 nM	99%
Cc1cn2nc([C@@H]3CCCCN3C(=O)c3cc(-c4cccs4)n[nH]3)cc2nc1N1CC[C@H](N)C1 [Compound 404]	0.1 to 100 nM	100%
Cc1cn2nc([C@@H]3CCCCN3C(=O)c3ccccc3-c3ccccc3)cc2nc1N1CC[C@H](N)C1 [Compound 407]	0.1 to 100 nM	92%
Cc1cn2nc([C@@H]3CCCCN3C(=O)c3ccc(-c4cccnc4)cc3)cc2nc1N1CC[C@H](N)C1 [Compound 408]	101 to 1000 nM	59%
Cc1cn2nc([C@@H]3CCCCN3C(=O)c3ccccc3-c3cccnc3)cc2nc1N1CC[C@H](N)C1 [Compound 409]	0.1 to 100 nM	99%
Cc1cn2nc([C@@H]3CCCCN3C(=O)c3ccccc3)cc2nc1N1CC[C@H](N)C1 [Compound 412]	0.1 to 100 nM	100%
